According to BigSolDB 2.1:

CC1CCC(=O)C1=O (stereo unspecified)
solubility (mole fraction)
Details	278.15 K	283.15 K	288.15 K	293.15 K	298.15 K	303.15 K	308.15 K	313.15 K
in 1,2-dichloroethane	0.0554	0.0773	0.0992	0.122	0.153	0.184	0.215	0.254
in acetone	0.0937	0.105	0.133	0.152	0.182	0.221	0.255	0.298
in acetonitrile	0.0331	0.0519	0.0657	0.0823	0.11	0.139	0.17	0.204
in dichloromethane	0.103	0.123	0.145	0.18	0.217	0.251	0.292	0.333
in ethanol	0.044	0.0503	0.0645	0.0752	0.0939	0.111	0.145	0.187
in ethyl acetate	0.0482	0.0574	0.0698	0.094	0.131	0.156	0.203	0.251
in ethyl formate	0.0504	0.0603	0.0707	0.0943	0.12	0.147	0.176	0.239
in isobutanol	0.0394	0.0467	0.052	0.0701	0.0866	0.111	0.153	0.211
in isopropanol	0.0198	0.0388	0.0599	0.0768	0.101	0.13	0.165	0.207
in methanol	0.0488	0.0629	0.0787	0.0966	0.119	0.147	0.177	0.208
in n-butanol	0.0353	0.0444	0.0552	0.0693	0.0858	0.105	0.133	0.18
in n-propanol	0.0389	0.0474	0.0581	0.0731	0.0903	0.113	0.141	0.202
